In the pKa sets of Baltruschat and Czodrowski (2020):

Work on `CC(C)NCC(O)COc1ccc(COCCOC(C)C)cc1` (centres undefined) yielded a pKa of 9.57.
`CN(C)CCC=C1c2ccccc2CCc2ccccc21` gave a pKa of 9.4.
For `O=C(NCC1CCCCN1)c1cc(OCC(F)(F)F)ccc1OCC(F)(F)F` (centres undefined), the pKa was 9.3.
With `COc1ccc2c3c1O[C@H]1[C@@H](O)C=C[C@H]4[C@@H](C2)N(C)CC[C@@]341` the pKa was 8.2.
Work on `CNCCC=C1c2ccccc2CCc2ccccc21` yielded a pKa of 10.1.
Work on `CCOC(=O)C1(c2ccccc2)CCN(C)CC1` yielded a pKa of 8.7.
`O=c1n(CCCN2CCN(c3cccc(Cl)c3)CC2)nc2ccccn12` gave a pKa of 6.79.
Work on `CC(C)(C)NCC(O)COc1cccc2c1C[C@H](O)[C@H](O)C2` (some centres undefined) yielded a pKa of 9.67.
In the case of `CC(C)(C)NCC(O)COc1nsnc1N1CCOCC1` (centres undefined), the pKa is reported as 8.8.
In the case of `CC(CN1c2ccccc2Sc2ccccc21)N(C)C` (centres undefined), the pKa is reported as 9.1.
`CC(C)(C)NCC(O)c1cc(O)cc(O)c1` (centres undefined) showed a pKa of 8.7.
In the case of `Cc1ccccc1OCC(O)CNCCOc1ccc(C(N)=O)cc1` (centres undefined), the pKa is reported as 7.9.
For `COc1ccc([C@@H]2Sc3ccccc3N(CCN(C)C)C(=O)[C@@H]2OC(C)=O)cc1`, the pKa was 8.06.
Molecule `CNCCCC12CCC(c3ccccc31)c1ccccc12` has a pKa of 10.5.
For `CNS(=O)(=O)Cc1ccc2[nH]cc(CCN(C)C)c2c1`, the pKa was 9.5.
In the case of `Cc1ccc(O)c([C@@H](CCN(C(C)C)C(C)C)c2ccccc2)c1`, the pKa is reported as 9.8.
With `COc1ccc2c(c1)N(C[C@H](C)CN(C)C)c1ccccc1S2` the pKa was 9.19.
In the case of `CN1CCN2c3ncccc3Cc3ccccc3C2C1` (centres undefined), the pKa is reported as 7.3.
With `CCN(C)C(=O)Oc1cccc([C@H](C)N(C)C)c1` the pKa was 8.99.
In the case of `CC(CCc1ccccc1)NCC(O)c1ccc(O)c(C(N)=O)c1` (centres undefined), the pKa is reported as 7.4.
In the case of `CN1CCCC(n2nc(Cc3ccc(Cl)cc3)c3ccccc3c2=O)CC1` (centres undefined), the pKa is reported as 9.54.
Molecule `CCc1nn(CCCN2CCN(c3cccc(Cl)c3)CC2)c(=O)n1CCOc1ccccc1` has a pKa of 6.5.
`CNCC[C@@H](Oc1ccccc1C)c1ccccc1` gave a pKa of 10.1.
Molecule `CN(C)CCCN1c2ccccc2Sc2ccccc21` has a pKa of 9.28.
Work on `OC(CNCC(O)C1CCc2cc(F)ccc2O1)C1CCc2cc(F)ccc2O1` (centres undefined) yielded a pKa of 8.22.
Work on `CC(CN(C)C)CN1c2ccccc2CCc2ccccc21` (centres undefined) yielded a pKa of 9.24.
Work on `CN(C)CCCN1c2ccccc2CCc2ccc(Cl)cc21` yielded a pKa of 9.38.
Work on `CC(C)NCC(O)c1ccc(NS(C)(=O)=O)cc1` (centres undefined) yielded a pKa of 9.76.
In the case of `CC(C)NCC(O)COc1ccc(CCOCC2CC2)cc1` (centres undefined), the pKa is reported as 9.21.
